Measured values as given in PubChem BioAssay AID1949 (Southern Research Institute, 2009).
In brackets after ≈: the same amount, converted by molar mass. Records with an inconclusive call do not appear. Activity calls are given as the source filed them. The rule behind the calls is not given here.

test system: M. tuberculosis H37Rv growth inhibition; assay: Mycobacterium tuberculosis H37Rv growth inhibition, cell based, confirmatory dose response (AID 1949);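 note: bacteria grown 7 days with compound before Alamar blue readout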

| SMILES | IC50 |
| --- | --- |
| Cc1cccc(N2CCN(C3=NC(=O)C(=C4CCCCC4)S3)CC2)c1 | 0.78 µg/mL (≈ 2.19 µM) |
| Cc1ccc(-n2c(=O)oc3ccc(Cl)cc3c2=O)cc1Cl | 1.08 µg/mL (≈ 3.35 µM) |
| O=C(OCc1ccc(S(=O)(=O)c2ccccc2)cc1)c1ccccc1Br | 8.37 µg/mL (≈ 19.4 µM) |
| Nc1c(C(=O)NCc2ccc(Cl)cc2)sc2nc3c(c(C(F)(F)F)c12)CCC3 | 9.45 µg/mL (≈ 22.2 µM) |
| CCOc1ccc(C(=O)NC(=S)Nc2ccc(N3CCN(C)CC3)c(Cl)c2)cc1Cl | > 50 µg/mL (inactive) |
| Cc1cc(OCCCn2ccnc2)cc(C(C)C)c1 | 6.24 µg/mL (≈ 24.2 µM) |
| CCOC(=O)CSC1=C(C#N)C(c2ccccc2[N+](=O)[O-])C(C(C)=O)=C(C)N1 (centres undefined) | 1.41 µg/mL (≈ 3.51 µM) |
| Cc1ccc(N2CCN(CC(O)COc3ccc4ccccc4c3)CC2)c(C)c1 (centres undefined) | 9.31 µg/mL (≈ 23.8 µM) |
| c1ccc(COc2ccc(OCCn3ccnc3)cc2)cc1 | 10.4 µg/mL (≈ 35.2 µM) |
| COC(=O)CSc1nc(N2CCCCC2)c2c(c1C#N)CCCC2 | 0.17 µg/mL (≈ 0.492 µM) |
| COc1ccc2c(c1)c(=O)oc1cc(OC(C)C(=O)c3ccccc3)ccc12 (centres undefined) | 2.84 µg/mL (≈ 7.59 µM) |
| O=C(Nc1ccc(N2CCN(Cc3ccccc3)CC2)cc1)c1cccc(Cl)c1Cl | 4.51 µg/mL (≈ 10.2 µM) |
| COc1ccc(-c2cc(C(F)F)n3ncc(C(=O)NCCCn4ccnc4)c3n2)cc1 | 8.99 µg/mL (≈ 21.1 µM) |
| O=C(CN(c1ccc(Cl)c(Cl)c1)S(=O)(=O)c1ccccc1)Nc1cccc([N+](=O)[O-])c1 | 1.47 µg/mL (≈ 3.06 µM) |
| Clc1cc(Br)ccc1OCCCCn1ccnc1 | 1.11 µg/mL (≈ 3.37 µM) |
| Cc1ccc2c(c1)c1c(n2CC(O)CN2CCCCCC2)C(=O)CCC1 (centres undefined) | 6.18 µg/mL (≈ 17.4 µM) |
| O=C(Nc1ccc(OC(F)(F)F)cc1)Nc1cccc([N+](=O)[O-])c1 | 0.19 µg/mL (≈ 0.557 µM) |
| Nc1nnc(Sc2ccc([N+](=O)[O-])c3ncccc23)s1 | 3.47 µg/mL (≈ 11.4 µM) |
| O=C(COc1ccc(Cl)cc1)NCCC12CC3CC(CC(C3)C1)C2 | 43.5 µg/mL (≈ 125 µM) |
| CC(=O)c1cccc(Nc2cc(C)nc3c2ccc2ccccc23)c1 | 3.1 µg/mL (≈ 9.5 µM) |
| Nc1ncnc(Sc2nc3ccccc3s2)c1[N+](=O)[O-] | 0.5 µg/mL (≈ 1.64 µM) |
| O=C(CC12CC3CC(CC(C3)C1)C2)Nc1ccc(F)c(Cl)c1 | 3.02 µg/mL (≈ 9.38 µM) |
| CSc1ncc(C(=O)NCc2ccco2)cn1 | 3.04 µg/mL (≈ 12.2 µM) |
| C=CCn1c(NCc2cccc3ccccc23)nc2ccccc21 | 3.16 µg/mL (≈ 10.1 µM) |
| CCn1nnc(NC(=O)COc2ccc(C3CCCCC3)cc2)n1 | 2.04 µg/mL (≈ 6.19 µM) |

| SMILES | IC50 |
| --- | --- |
| O=C(Nc1ccc(Cl)c(Cl)c1)Nc1ccc(Br)cc1F | 0.37 µg/mL (≈ 0.979 µM) |
| O=C(Nc1cccc([N+](=O)[O-])c1)Nc1ccc(Cl)c(C(F)(F)F)c1 | 0.19 µg/mL (≈ 0.528 µM) |
| COc1ccc(C(=O)O/N=C(\N)Cc2ccc(Cl)c(Cl)c2)cc1OC | 9.32 µg/mL (≈ 24.3 µM) |
| Cc1cc(C)c2c(c1)c(-c1ccccc1)c(-c1ccccc1)n2CC(O)CN1CCN(CCO)CC1 (centres undefined) | 3.02 µg/mL (≈ 6.24 µM) |
| Oc1ccccc1CNCCC12CC3CC(CC(C3)C1)C2 | > 50 µg/mL (inactive) |
| O=C(CS(=O)(=O)c1ccc2ccccc2c1)Nc1ccccc1Cl | 4.48 µg/mL (≈ 12.5 µM) |
| O=C(O)c1ccc(NC(=S)NC(=O)c2ccc(-c3ccccc3)cc2)cc1 | 1.58 µg/mL (≈ 4.2 µM) |
| Cc1cccc(NC(=O)c2cc3cc([N+](=O)[O-])ccc3oc2=O)c1 | > 50 µg/mL (inactive) |
| CCCCNCCCCCOc1ccc(Cl)cc1Cl | 4.18 µg/mL (≈ 13.7 µM) |
| COc1cc(/C=C2\Oc3ccccc3C2O)cc(Cl)c1OC (centres undefined) | 3.04 µg/mL (≈ 9.54 µM) |
| Cc1nc(SCC(=O)N2CCC(C)CC2)c2c3c(sc2n1)CCC3 | > 50 µg/mL (inactive) |
| Brc1ccc(-c2nn(-c3ccccc3)cc2CNCc2ccccc2)cc1 | 1.24 µg/mL (≈ 2.96 µM) |
| CCN1C(=O)c2cccc3c([N+](=O)[O-])ccc(c23)C1=O | > 50 µg/mL (inactive) |
| Cc1ccc(CN2C(=O)C(=O)c3cc(Br)ccc32)c(C)c1 | 8.44 µg/mL (≈ 24.5 µM) |
| CCOc1ccccc1C(=O)Nc1cc(Cl)ccc1O | 4.22 µg/mL (≈ 14.5 µM) |
| CCOC(=O)c1c(-c2ccccc2)c2cc(OC)ccc2n1CCCN(C)C | 4.68 µg/mL (≈ 12.3 µM) |
| CS(=O)(=O)c1ncc(Cl)c(C(=O)Nc2cc(C(F)(F)F)ccc2Cl)n1 | 17.1 µg/mL (≈ 41.3 µM) |
| CCc1ccc(C(=O)NC(=S)Nc2ccc(Cc3ccncc3)cc2)cc1 | 10.9 µg/mL (≈ 29.1 µM) |
| COC(=O)COc1ccc2c(-c3ccc(OC)cc3)cc(=O)oc2c1 | 0.86 µg/mL (≈ 2.53 µM) |
| CCn1c2ccc(F)cc2c2nc3ccccc3nc21 | 6.92 µg/mL (≈ 26.1 µM) |
| Cc1ccc(-c2nc(NC(=O)C34CC5CC(CC(C5)C3)C4)sc2C)cc1 | > 50 µg/mL (inactive) |
| Cc1ccc2nc(-c3cccc(NC(=O)c4cccs4)c3)[nH]c2c1 | 7.08 µg/mL (≈ 21.2 µM) |
| COC(=O)CSc1nnc(-c2ccccc2C)o1 | 4.38 µg/mL (≈ 16.6 µM) |
| O=[N+]([O-])c1ccc(-c2[nH]c(-c3cccs3)nc2-c2ccccc2)cc1 | 2.86 µg/mL (≈ 8.23 µM) |
